Source: patent publication US20250215032A1, “PHOSPHORYLPURINONE COMPOUNDS FOR THE TREATMENT OF CANCER” (Hoffmann-La Roche Inc., priority 2022, published 2025)
In brackets after ≈: the same amount, converted by molar mass. Read-outs that look alike come from different tables or passages of the source.

Experiments:
[1] = Lyophilisation solubility assay (LYSA), kinetic solubility; assay type: physicochemical; conditions: aqueous buffer; 0.05 M phosphate buffer (pH 6.5), from 10 mM DMSO stock after evaporation
Source text: The solubility of a substance can be broadly defined as the maximum amount of the substance that dissolves in a specified volume of solvent. However, it is important to understand that the solubility of a compound can vary drastically depending on the condition of the solvent (e.g. temperature and pH) and the physiochemical properties of the compound (e.g. ionisation and crystallinity). These critical factors need to be considered during solubility determination in order to generate high quality solubility data that will be useful in the progression of compounds through the discovery and development stages. The kinetic solubility of a compound is the maximum solubility of the fastest precipitating species of the compound; this is often measured using a stock solution of the compound dissolved in an organic solvent, typically dimethyl sulfoxide (DMSO), as the starting material. […] The precipitate formed, which is rarely determined during the assessment, could be any combination of various possible solid states of the compound. Given the level of supersaturation that could occur when an organic solvent is diluted in water, kinetic solubility values are typically higher than the corresponding thermodynamic (equilibrium) solubility values. Solubility assays in the early discovery process often determine kinetic solubility. The lyophilisation solubility assay (LYSA) is a high throughput kinetic solubility assay for the early drug discovery process.
Samples were prepared in duplicate from 10 mM DMSO stock solution. After evaporation of DMSO with a centrifugal vacuum evaporator, the compounds were solved in 0.05 M phosphate buffer (pH 6.5), stirred for one hour and shaken for two hours. After one night, the solutions were filtered using a microtiter filter plate. Then the filtrate and its 1/10 dilution were analyzed by HPLC-UV. […] The results were in μg/mL. […] It should be noted that metastable solid phases may form during the evaporation step, and the method might therefore produce higher solubility values than assays using the stable polymorph as the starting material.

[2] = Dissolution test in fed state simulated intestinal fluid (FeSSIF); assay type: physicochemical; conditions: FeSSIF pH 5, room temperature
Method: 4.040 g of NaOH (pellets), 8.650 g of glacial acetic acid and 11.874 g of NaCl were dissolved in about 0.9 L of purified water. The pH was adjusted to 5 with either 1 N NaOH or 1 N HCl. The total volume of the mixture was made up to 1.0 L with purified water at room temperature.
To about 50 mL of blank FeSSIF buffer was added 1.120 g of SIF Powder Original (Biorelevant.com Ltd, Product code: FFF03, UK), the mixture was stirred until powder was completely dissolved. The total volume of the mixture was made up to 100 mL with blank FeSSIF buffer at room temperature.
(§1) Approximately 1-2 mg of each compound was added in excess into […] of buffer at room temperature. Each sample is placed in a microanalysis glass tube, which was sonicated for 1 h and agitated for 2 h. All suspensions were left overnight (about 16 h). On the next day, all pH values were measured with a pH-meter and the samples were filtered into a V-bottom plate with a micronic filterplate to separate the solid material from the solution. Then, all solutions were diluted into 96 well V-bottom microplates and analyzed by UPLC-UV.
(§2) The calibration line was established by UPLC using 5 different dilutions of the compound in a DMSO stock solution, made in micronic tubes (concentration approximately 1 mg/mL). Dilutions took place with DMSO (in special circumstances, with acetonitrile, or 80% HCl 0.1 N/20% acetonitrile). From this regression equation the solubility of the compound was determined. In cases where the compound was completely dissolved in the buffer, the value for equilibrium solubility was assumed to be higher than the value determined by UPLC and reported as such.

human TLR7 = target: T1, human TLR7 (Homo sapiens, UniProt Q9NYK1); experiment: HEK293-Blue-hTLR7 cells assay (SEAP reporter, NF-κB activation)
T1 sequence (Q9NYK1 27-1049): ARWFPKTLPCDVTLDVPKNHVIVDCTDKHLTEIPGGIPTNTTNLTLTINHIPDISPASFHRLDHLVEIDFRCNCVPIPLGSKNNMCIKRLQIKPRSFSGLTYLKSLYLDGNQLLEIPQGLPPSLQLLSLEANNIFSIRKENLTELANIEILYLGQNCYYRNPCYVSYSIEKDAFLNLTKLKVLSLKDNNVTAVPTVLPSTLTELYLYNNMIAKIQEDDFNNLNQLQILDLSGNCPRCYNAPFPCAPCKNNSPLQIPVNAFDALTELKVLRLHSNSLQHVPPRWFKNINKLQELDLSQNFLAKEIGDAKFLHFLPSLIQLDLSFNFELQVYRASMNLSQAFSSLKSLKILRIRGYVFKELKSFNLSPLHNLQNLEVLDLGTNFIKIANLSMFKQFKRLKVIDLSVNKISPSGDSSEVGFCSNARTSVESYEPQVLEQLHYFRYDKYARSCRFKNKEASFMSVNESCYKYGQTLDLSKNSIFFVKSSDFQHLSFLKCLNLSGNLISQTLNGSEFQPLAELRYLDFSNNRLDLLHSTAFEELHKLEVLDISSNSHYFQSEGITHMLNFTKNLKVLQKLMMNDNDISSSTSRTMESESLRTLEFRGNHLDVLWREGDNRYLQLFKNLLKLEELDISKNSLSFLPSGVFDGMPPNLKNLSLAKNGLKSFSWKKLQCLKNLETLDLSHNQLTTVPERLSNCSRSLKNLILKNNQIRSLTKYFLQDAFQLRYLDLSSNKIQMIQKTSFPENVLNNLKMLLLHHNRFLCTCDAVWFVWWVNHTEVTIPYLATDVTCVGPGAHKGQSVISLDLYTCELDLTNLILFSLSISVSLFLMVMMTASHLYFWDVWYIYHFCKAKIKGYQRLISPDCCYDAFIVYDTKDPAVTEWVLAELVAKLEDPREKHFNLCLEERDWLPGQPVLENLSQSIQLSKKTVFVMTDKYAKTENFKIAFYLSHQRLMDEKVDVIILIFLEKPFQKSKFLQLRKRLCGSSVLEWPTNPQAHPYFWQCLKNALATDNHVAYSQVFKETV
Source text: A stable HEK293-Blue-h TLR7 cell line was purchased from InvivoGen (Cat. #: hkb-htlr7, San Diego, California, USA). These cells were designed for studying the stimulation of human TLR7 by monitoring the activation of NF-κB. A SEAP (secreted embryonic alkaline phosphatase) reporter gene was placed under the control of the IFN-β minimal promoter fused to five NF-κB and AP-1-binding sites. The SEAP was induced by activating NF-κB and AP-1 via stimulating HEK-Blue hTLR7 cells with TLR7 ligands. Therefore the reporter expression was regulated by the NF-κB promoter upon stimulation of human TLR7 for 20 hrs. The cell culture supernatant SEAP reporter activity was determined using QUANTI-Blue™ kit (Cat. #: rep-qb1, Invivogen, San Diego, Ca, USA) at a wavelength of 640 nm, a detection medium that turns purple or blue in the presence of alkaline phosphatase.
HEK293-Blue-hTLR7 cells were incubated at a density of 250,000˜450,000 cells/mL in a volume of 180 μL in a 96-well plate in Dulbecco's Modified Eagle's medium (DMEM) containing 4.5 g/L glucose, 50 U/mL penicillin, 50 mg/mL streptomycin, 100 mg/mL Normocin, 2 mM L-glutamine, 10% (V/V) heat-inactivated fetal bovine serum for 24 hrs. Then the HEK293-Blue-hTLR7 cells were incubated with addition of 20 μL test compound in a serial dilution in the presence of final DMSO at 1% and perform incubation under 37° C. in a CO2 incubator for 20 hrs.

[3] = Thermodynamic solubility assay (THESA), equilibrium solubility; assay type: physicochemical; conditions: 22 °C, aqueous buffer, thermodynamic from solid; 50 mM phosphate buffer (pH 6.5), room temperature (22±2° C.)
Method: The thermodynamic (equilibrium) solubility is the saturation solubility of a compound at the end of the dissolution process, where the dissolved compound is in equilibrium with the undissolved material in excess. The thermodynamic solubility is determined by dispensing a solid compound into a solvent. This is often deemed as the true solubility of the compound and is a critical piece of information in formulation development. The thermodynamic solubility assay (THESA) is a widely used tool for the measurement of equilibrium solubility for the later drug discovery process and is considered as a gold standard solubility assay.
Approximately 1-2 mg of each compound was added into 300 μL of 50 mM phosphate buffer (pH 6.5) at room temperature (22±2° C.). Each sample is placed in a microanalysis tube, which was sonicated for 1 h and shaken for 2 h. All suspensions were left overnight (about 16 h). On the next day, the samples were filtered into a V-bottom plate with a micronic filterplate to separate the solid material from the solution. Then, all solutions were diluted into 96 well V-bottom microplates and analyzed by UPLC-UV. The calibration line was established by UPLC using 5 different dilutions of the compound in a DMSO stock solution, made in micronic tubes (concentration approximately 1 mg/mL). Dilutions took place with DMSO. From this regression equation the solubility of the compound was determined. In cases where the drug was completely dissolved in the buffer, the value for equilibrium solubility was assumed to be higher than the value determined by UPLC and reported as such.

[4] = Dissolution test in fasted state simulated intestinal fluid (FaSSIF); assay type: physicochemical; conditions: FaSSIF pH 6.5, room temperature
Method: 0.420 g of NaOH (pellets), 3.954 g of NaH2PO4 (monohydrate) and 6.186 g of NaCl were dissolved in about 0.9 L of purified water. The pH was adjusted to 6.5 with either 1 N NaOH or 1 N HCl. The total volume of the mixture was made up to 1.0 L with purified water at room temperature.
To about 50 mL of blank FaSSIF buffer was added 0.2240 g of SIF Powder Original (Biorelevant.com Ltd, Product code: FFF03, UK), the mixture was stirred until powder was completely dissolved. The total volume of the mixture was made up to 100 mL with blank FaSSIF buffer at room temperature.
as §1, §2

Row | Compound | solubility kinetic [1] | FeSSIF [2] | EC50 (human TLR7) | solubility thermodynamic [3] | FaSSIF [4] | EC50 (human TLR7; read-out: HEK293-Blue-h TLR7 (EC50 (μM)), HEK293-Blue-hTLR7 cells, 20 hrs incubation, SEAP reporter)
1 | CC[P@@](C)(=O)c1nc(N)c2[nH]c(=O)n(Cc3ccc(NCCN(C)C)nc3)c2n1 [Example 15-A, 6-amino-9-[[6-[2-(dimethylamino)ethylamino]-3-pyridyl]methyl]-2-[(R)-ethyl(methyl)phosphoryl]-7H-purin-8-one] | > 560 µg/mL | 3987 µg/mL | 0.018 µM | 4060 µg/mL (≈ 9.7 mM) | 3074 µg/mL | –
2 | CC[P@](C)(=O)c1nc(N)c2[nH]c(=O)n(Cc3ccc(NCCN(C)C)nc3)c2n1 [Example 15-B, 6-amino-9-[[6-[2-(dimethylamino)ethylamino]-3-pyridyl]methyl]-2-[(S)-ethyl(methyl)phosphoryl]-7H-purin-8-one] | > 560 µg/mL | >4267 µg/mL | 0.012 µM | > 4970 µg/mL | >3733 µg/mL | –
3 | CCCS(=N)(=O)c1nc(N)c2[nH]c(=O)n(Cc3ccc(Cl)nc3)c2n1 (stereo not drawn) [RO14, reference compound] | 69 µg/mL | 21 µg/mL | – | 33 µg/mL (≈ 0.0864 mM) | 14 µg/mL | 0.017 µM
